Experimental findings from US20250346592A1 (Celgene Corporation, priority 2022, published 2025) are described below.

The structures appear in SMILES notation. pIC50: −log10 of the molar value.

Assay [1] has as its target T1, hPAD4 enzyme (Homo sapiens (Human), UniProt Q9UM07). In words: RFMS1 assay (RapidFire mass spectrometry, BAEE substrate). Format: biochemical. To be noted: 5 nM hPAD4, 250 μM BAEE, 30 min preincubation at 37° C., 90 min reaction; read-out: RFMS 1 IC50. As for the experimental part: Compounds were solubilized in 100% DMSO to achieve a 10 mM compound concentration. Compound stock solutions were stored at RT. A series of dilutions were prepared in DMSO and mixed 8 times with 20 μL mixing volume. Final top concentration of compound in the assay is 50 μM. Final assay conditions were as follows: • Reaction volume: 26 μl • Assay buffer: 25 mM hepes, pH 7.5, 5 mM NaCl, 1 mM DTT, 0.2 mg/ml BSA, 0.01% CHAPS, 50 µM Calcium, and 5 μM TPEN • Final concentrations: 5 nM hPAD4 enzyme, 250 µM BAEE, and 0.5% DMSO • Total incubation time: 30 mins compound and enzyme preincubation at 37° C., 90 min enzyme/substrate reaction, 30 min reaction with phenyl glyoxal at 37° C. • Stop solution: 40 μl 5% TCA in ACN • 0.13 μL of compound solution was added to 13 μL of 10 nM PAD4 in assay buffer. After […] min 13 μl of 500 µM of BAEE was added in 25 mM hepes, pH 7.5, 5 mM NaCl, 1 mM DTT, 0.2 mg/ml BSA, 0.01% CHAPS, 50 μM Calcium, 5 μM TPEN was added and the reaction incubated for 90 min at 37° C. The enzymatic reaction was quenched by addition of 15 μl of 6.1N TCA, 100% Final Concentration is 20%, 35 μl of 8.5 mM phenyl glyoxal (final concentration 4 mM) is then added and the reaction is incubated for 30 min at 37° C.
After 30 minutes the plates are spun down to remove all precipitate. The enzyme reaction was quenched with an equal volume of methanol containing internal standard (modified citrulline). Samples were loaded onto the Rapid Fire RF300 system (Agilent) wherein they were first sipped for 1000 ms and then directly loaded to a C18 separations cartridge using a mixture of acetonitrile containing 0.01% formic acid for 3000 ms desalting. The flow rate of the mobile phase was 1.5 ml/min. Once the samples were eluted from the cartridge, a mobile phase of acetonitrile containing 0.01% formic acid was used to move the samples into the mass spectrometer for 4000 ms at a flow rate of 1.25 ml/min/Sciex API5500 triple quadrupole mass spectrometer (Applied Biosystems) equipped with ESI was used to analyze the peptidyl citrulline and internal standard ions.
MRM transition of product and internal standard were monitored at m/z 424.5 to 350.4 and m/z 293 to 247 respectively. The dwell time for each transition was set at 200 ms, and the ESI voltage was used at 5500 with a source temperature of 400° C. Extracted ion peaks for each transition were integrated using the Rapid Fire Integrator software. Peak area of analyte was normalized with internal standard.).
Compounds having an activity designated as “A” provided an IC50≤10 nM; compounds having an activity designated as “B” provided an IC50 11-100 nM; compounds having an activity designated as “C” provided an IC50 101-500 nM; compounds having an activity designated as “D” provided an IC50 501-1000 nM; compounds having an activity designated as “E” provided an IC50>1000 nM.

The target in assay [2] is T1, hPAD4 enzyme. In words: RFMS2 assay (RapidFire mass spectrometry, TSTGGRQGSHH peptide substrate). In kind it is biochemical. To be noted: 35 nM recombinant human PAD4, 500 μM TSTGGRQGSHH peptide, 30 minutes at room temperature; read-out: RFMS 2 IC50. In outline:
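Recombinant human PAD4 (35 nM) with 500 μM TSTGGRQGSHH peptide in HEPES pH 7.4, 200 mM NaCl, 2 mM CaCl2, 5 mM DTT, 1.2% DMSO, 30 min at room temperature; 3-fold compound series, top 20 μM. Quenched with formic acid; substrate and citrullinated product quantified by RapidFire MRM mass spectrometry for IC50.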

T1 sequence (Q9UM07 whole entry): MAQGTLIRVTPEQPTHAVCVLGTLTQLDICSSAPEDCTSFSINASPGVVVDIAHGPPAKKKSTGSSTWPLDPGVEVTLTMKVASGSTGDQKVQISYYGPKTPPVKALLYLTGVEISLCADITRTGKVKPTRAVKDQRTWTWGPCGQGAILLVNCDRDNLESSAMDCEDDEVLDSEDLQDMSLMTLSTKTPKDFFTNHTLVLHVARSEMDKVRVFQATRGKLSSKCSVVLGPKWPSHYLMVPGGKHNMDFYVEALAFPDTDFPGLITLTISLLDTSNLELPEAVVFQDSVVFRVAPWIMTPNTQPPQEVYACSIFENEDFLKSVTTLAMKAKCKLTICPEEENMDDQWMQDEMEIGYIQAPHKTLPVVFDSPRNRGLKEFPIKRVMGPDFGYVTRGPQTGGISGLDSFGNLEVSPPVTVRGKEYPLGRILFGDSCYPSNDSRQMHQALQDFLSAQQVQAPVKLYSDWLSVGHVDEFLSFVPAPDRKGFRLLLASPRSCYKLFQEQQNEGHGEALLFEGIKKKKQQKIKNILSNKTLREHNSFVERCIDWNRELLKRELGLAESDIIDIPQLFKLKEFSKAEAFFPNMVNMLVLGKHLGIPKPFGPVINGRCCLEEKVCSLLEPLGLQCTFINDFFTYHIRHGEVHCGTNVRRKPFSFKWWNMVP

A word on the pIC50: it is −log10 of the IC50, conventionally taken in molar units. For `Cn1c(-c2cc3ccccc3n2CC2CC2)nc2cc3c(c(F)c21)CCN(C[C@H](N)CF)C3=O` [Example 236, (S)-6-(2-amino-3-fluoropropyl)-2-(1-(cyclopropylmethyl)-1H-indol-2-yl)-9-fluoro-1-methyl-1,6,7,8-tetrahydro-5H-imidazo[4,5-g]isoquinolin-5-one], the values for the pIC50 on hPAD4 enzyme [1] and on hPAD4 enzyme [2] were 6.30 to 7.00 and 6.00 to 6.30, respectively.

Regarding `COc1cccc2cc(-c3nc4cc5c(c(F)c4n3C)CCN(C[C@H](N)CF)C5=O)n(CC3CC3)c12` [Example 238, (S)-6-(2-amino-3-fluoropropyl)-2-(1-(cyclopropylmethyl)-7-methoxy-1H-indol-2-yl)-9-fluoro-1-methyl-1,6,7,8-tetrahydro-5H-imidazo[4,5-g]isoquinolin-5-one], the figures for the pIC50 on hPAD4 enzyme [1] and on hPAD4 enzyme [2] were 7.00 to 7.96 and 6.30 to 7.00, respectively.

Turning to `Cn1c(-c2cc3cccc(OCCn4cnnc4)c3n2CC2CC2)nc2cc3c(cc21)CCN(C[C@H]1COCCN1)C3=O` [Example 234, 2-[1-(cyclopropylmethyl)-7-[2-(1,2,4-triazol-4-yl)ethoxy]indol-2-yl]-1-methyl-6-[[(3S)-morpholin-3-yl]methyl]-7,8-dihydroimidazo[4,5-g]isoquinolin-5-one], the pIC50 on hPAD4 enzyme [1] is 7.00 to 7.96; at hPAD4 enzyme [2], 6.00 to 6.30.

For the molecule `Cn1c(-c2cc3ccccc3n2CC2CC2)nc2cc3c(cc21)CCN(C[C@H]1COCCN1)C3=O` [Example 13, (S)-2-(1-(cyclopropylmethyl)-1H-indol-2-yl)-1-methyl-6-(morpholin-3-ylmethyl)-1,6,7,8-tetrahydro-5H-imidazo[4,5-g]isoquinolin-5-one], the results for the pIC50 on hPAD4 enzyme [1] and at hPAD4 enzyme [2] were 6.30 to 7.00 and 6.00 to 6.30, respectively.

Take `C[C@H](Cn1ccnc1)Oc1cccc2cc(-c3nc4cc5c(cc4n3C)CCN(C[C@H](N)CF)C5=O)n(CC3CC3)c12` [Example 223, 2-(7-(((R)-1-(1H-imidazol-1-yl)propan-2-yl)oxy)-1-(cyclopropylmethyl)-1H-indol-2-yl)-6-((S)-2-amino-3-fluoropropyl)-1-methyl-1,6,7,8-tetrahydro-5H-imidazo[4,5-g]isoquinolin-5-one]: the pIC50 at hPAD4 enzyme [1] is no less than 8.00; at hPAD4 enzyme [2], 6.30 to 7.00.

As for `Cn1c(-c2cc3cccc(OCCn4cncn4)c3n2CC2CC2)nc2cc3c(cc21)CCN(C[C@H](N)CF)C3=O` [Example 150, (S)-2-(7-(2-(1H-1,2,4-triazol-1-yl)ethoxy)-1-(cyclopropylmethyl)-1H-indol-2-yl)-6-(2-amino-3-fluoropropyl)-1-methyl-1,6,7,8-tetrahydro-5H-imidazo[4,5-g]isoquinolin-5-one], the results for the pIC50 at hPAD4 enzyme [1] and at hPAD4 enzyme [2] were no less than 8.00 and 6.30 to 7.00, respectively.

`Cn1c(-c2cc3cccc(OCc4ccn[nH]4)c3n2CC2CC2)nc2cc3c(cc21)CCN(C[C@H](N)CF)C3=O` [Example 174, (S)-2-(7-((1H-pyrazol-5-yl)methoxy)-1-(cyclopropyl-methyl)-1H-indol-2-yl)-6-(2-amino-3-fluoropropyl)-1-methyl-1,6,7,8-tetrahydro-5H-imidazo[4,5-g] isoquinolin-5-one]: the pIC50 on hPAD4 enzyme [1] and on hPAD4 enzyme [2] was 7.00 to 7.96 in each case.

For `C[C@H](CN1CCc2cc3c(cc2C1=O)nc(-c1cc2ccccc2n1CC1CC1)n3C)NCCF` [Example 3, (R)-2-(1-(cyclopropylmethyl)-1H-indol-2-yl)-6-(2-((2-fluoroethyl)amino)propyl)-1-methyl-1,6,7,8-tetrahydro-5H-imidazo[4,5-g]isoquinolin-5-one], the pIC50 at hPAD4 enzyme [1] and on hPAD4 enzyme [2] was less than 6.00 in each case.

Regarding `CC(C)[C@@H](N)CN1CCc2cc3c(cc2C1=O)nc(-c1cc2ccccc2n1CC1CC1)n3C` [Example 11, (R)-6-(2-amino-3-methylbutyl)-2-(1-(cyclopropylmethyl)-1H-indol-2-yl)-1-methyl-1,6,7,8-tetrahydro-5H-imidazo[4,5-g]isoquinolin-5-one], the pIC50 at hPAD4 enzyme [1] and at hPAD4 enzyme [2] was less than 6.00 in each case.

Turning to `Cn1c(-c2cc3ccccc3n2CC2CC2)nc2cc3c(cc21)CCN(C[C@H](N)C(F)F)C3=O` [Example 14, (S)-6-(2-amino-3,3-difluoropropyl)-2-(1-(cyclopropylmethyl)-1H-indol-2-yl)-1-methyl-1,6,7,8-tetrahydro-5H-imidazo[4,5-g]isoquinolin-5-one], the results for the pIC50 on hPAD4 enzyme [1] and at hPAD4 enzyme [2] were 6.00 to 6.30 and less than 6.00, respectively.

For the molecule `Cn1c(-c2cc3cccc(OCCn4cnnc4)c3n2CC2CC2)nc2cc3c(cc21)CCN(C[C@H](N)CF)C3=O` [Example 210, (S)-2-(7-(2-(4H-1,2,4-triazol-4-yl)ethoxy)-1-(cyclopropyl-methyl)-1H-indol-2-yl)-6-(2-amino-3-fluoropropyl)-1-methyl-1,6,7,8-tetrahydro-5H-imidazo[4,5-g]isoquinolin-5-one], the pIC50 at hPAD4 enzyme [1] and at hPAD4 enzyme [2] was 7.00 to 7.96 throughout.

Regarding `Cn1cncc1CCOc1cccc2cc(-c3nc4cc5c(cc4n3C)CCN(C[C@H](N)CF)C5=O)n(CC3CC3)c12` [Example 169, (S)-6-(2-amino-3-fluoropropyl)-2-(1-(cyclopropyl-methyl)-7-(2-(1-methyl-1H-imidazol-5-yl)ethoxy)-1H-indol-2-yl)-1-methyl-1,6,7,8-tetrahydro-5H-imidazo [4,5-g]isoquinolin-5-one], the pIC50 is 7.00 to 7.96 at hPAD4 enzyme [1] and 6.30 to 7.00 at hPAD4 enzyme [2].

Consider `Cn1c(-c2cc3cccc(/C=C/Cn4ccnc4)c3n2CC2CC2)nc2cc3c(cc21)CCN(C[C@H](N)CF)C3=O` [Example 227, (S,E)-2-(7-(3-(1H-imidazol-1-yl)prop-1-en-1-yl)-1-(cyclopropylmethyl)-1H-indol-2-yl)-6-(2-amino-3-fluoropropyl)-1-methyl-1,6,7,8-tetrahydro-5H-imidazo[4,5-g]isoquinolin-5-one], for which the pIC50 is no less than 8.00 on hPAD4 enzyme [1] and 7.00 to 7.96 on hPAD4 enzyme [2].

Regarding `COC(=O)NCCOc1cccc2cc(-c3nc4cc5c(cc4n3C)CCN(C[C@H](N)CF)C5=O)n(CC3CC3)c12` [Example 207, methyl (S)-(2-((2-(6-(2-amino-3-fluoropropyl)-1-methyl-5-oxo-5,6,7,8-tetrahydro-1H-imidazo[4,5-g]isoquinolin-2-yl)-1-(cyclopropylmethyl)-1H-indol-7-yl)oxy)ethyl)carbamate], the pIC50 is 7.00 to 7.96 on hPAD4 enzyme [1] and 6.30 to 7.00 on hPAD4 enzyme [2].

Consider `CN[C@H](C)CN1CCc2cc3c(cc2C1=O)nc(-c1cc2ccccc2n1CC1CC1)n3C` [Example 1, (R)-2-(1-(cyclopropylmethyl)-1H-indol-2-yl)-1-methyl-6-(2-(methylamino)propyl)-1,6,7,8-tetrahydro-5H-imidazo[4,5-g]isoquinolin-5-one], for which the pIC50 at hPAD4 enzyme [1] was 6.00 to 6.30; at hPAD4 enzyme [2], 6.30 to 7.00.

For `COc1cccc2cc(-c3nc4cc5c(cc4n3C)CCN(C[C@H](N)CF)C5=O)n(Cc3ncco3)c12` [Example 119, (S)-6-(2-amino-3-fluoropropyl)-2-(7-methoxy-1-(oxazol-2-ylmethyl)-1H-indol-2-yl)-1-methyl-1,6,7,8-tetrahydro-5H-imidazo[4,5-g]isoquinolin-5-one], the pIC50 at hPAD4 enzyme [1] was 7.00 to 7.96; on hPAD4 enzyme [2], 6.30 to 7.00.

As to `COc1cccc2cc(-c3nc4cc5c(cc4n3C)CCN(C[C@H](N)C(C)F)C5=O)n(CC3CC3)c12` (stereo partly drawn) [Example 15b, 6-((2S,3R)-2-amino-3-fluorobutyl)-2-(1-(cyclopropylmethyl)-7-methoxy-1H-indol-2-yl)-1-methyl-1,6,7,8-tetrahydro-5H-imidazo[4,5-g]isoquinolin-5-one], the pIC50 at hPAD4 enzyme [1] is 6.30 to 7.00; at hPAD4 enzyme [2], 6.00 to 6.30.
